System: Nrf2
Assay: Evaluation of Nrf2 activation ability (Nrf2d-LacZ / Keap1 HEK293 reporter, Beta-Glo luminescence)
Assay type: cell-based, human
Conditions: Pharmacological Test Example 1, rated A/B/C
Method: HEK293 cells constantly expressing Nrf2d-LacZ (human Nrf2 degron region fused to LacZ; Hirotsu et al, Genes to Cell, Vol. 16, pp. 406-415 (2011)) and human Keap1 were seeded 7,000 cells/27 μl/well on 384-well plates (Corning 384 Well Flat Clear Bottom White Polystyrene TC-Treated Microplates, Cat. #3707), and cultured overnight at 5% CO2, 37° C. in DMEM medium containing 10% FBS, 100 U/mL penicillin and 100 μg/mL streptomycin. 3 μL/well of a 0.1% DMSO solution of the compound of the invention was added to the cells, which were then cultured for 3 hours at 5% CO2, 37° C. Beta-Glo® reagent (Promega, Beta-Glo Assay System, Cat. #E4740) was added 15 μL/well and incubated for 1 hour at room temperature, and luminescence intensity was measured with a luminometer. Using CDDO-Im as a standard, Nrf2 activation ability was calculated given 100% as the luminescence under stimulus with 100 nM CDDO-Im.

Row | SMILES | EC50 [nM]
1 | CNc1ccc(-c2cnn(-c3cc(O)n[s+]3[O-])c2)cn1 (stereo not drawn) [Example 400] | 1000 to 5000
2 | COc1cncc(-c2cnn(-c3cc(O)n[s+]3[O-])c2)c1 (stereo not drawn) [Example 398] | 1000 to 5000
3 | N#Cc1ccc(Oc2ccc(-c3cnn(-c4cc(O)n[s+]4[O-])c3)cc2)cc1 (stereo not drawn) [Example 362] | < 1000
4 | [O-][s+]1nc(O)cc1-n1cc(-c2ccccc2)cn1 (stereo not drawn) [Example 363] | < 1000
5 | COc1cc(-c2ccc(-c3cnn(-c4cc(O)n[s+]4[O-])c3)cn2)ccn1 (stereo not drawn) [Example 446] | < 1000
6 | [O-][s+]1nc(O)cc1-n1cc(C2=Cc3ccccc3C2)cn1 (stereo not drawn) [Example 345] | < 1000
7 | [O-][s+]1nc(O)cc1-n1cc(-c2ccccc2Oc2ccccc2)cn1 (stereo not drawn) [Example 335] | 1000 to 5000
8 | [O-][s+]1nc(O)cc1-n1cc(-c2ccc3cccnc3c2)cn1 (stereo not drawn) [Example 383] | < 1000
9 | [O-][s+]1nc(O)cc1-n1cc(-c2ccc(Oc3ccccc3)cc2)cn1 (stereo not drawn) [Example 378] | < 1000
10 | [O-][s+]1nc(O)cc1-n1cc(-c2ccc(-c3ccc(N4CCCC4)nc3)nc2)cn1 (stereo not drawn) [Example 441] | < 1000
11 | [O-][s+]1nc(O)cc1-n1cc(-c2cnccn2)cn1 (stereo not drawn) [Example 428] | 5000 to 10000
12 | [O-][s+]1nc(O)cc1-n1cc(C2=Cc3ccccc3C2)cn1 (stereo not drawn) [Example 384] | < 1000
13 | Cc1nn(-c2cc(O)n[s+]2[O-])c(C)c1C1=CCC(C)(C)CC1 (stereo not drawn) [Example 316] | 1000 to 5000
14 | [O-][s+]1nc(O)cc1-n1cc(-c2ccc(Oc3ccccc3)cc2)cn1 (stereo not drawn) [Example 333] | < 1000
15 | [O-][s+]1nc(O)cc1-n1cc(-c2cccnc2C(F)(F)F)cn1 (stereo not drawn) [Example 395] | 1000 to 5000
16 | [O-][s+]1nc(O)cc1-n1cc(-c2ccc3ccncc3c2)cn1 (stereo not drawn) [Example 351] | 1000 to 5000
17 | Cn1ncc2c(-c3cnn(-c4cc(O)n[s+]4[O-])c3)cccc21 (stereo not drawn) [Example 360] | < 1000
18 | COc1ncccc1-c1cnn(-c2cc(O)n[s+]2[O-])c1 (stereo not drawn) [Example 393] | < 1000
19 | Cc1nn(-c2cc(O)n[s+]2[O-])c(C)c1C1=CCCCC1 (stereo not drawn) [Example 315] | 1000 to 5000
20 | CN(C)Cc1ccc(-c2cnn(-c3cc(O)n[s+]3[O-])c2)cc1 (stereo not drawn) [Example 405] | 1000 to 5000
21 | [O-][s+]1nc(O)cc1-n1cc(-c2cnccn2)cn1 (stereo not drawn) [Example 407] | 1000 to 5000
22 | COc1ccccc1-c1cnn(-c2cc(O)n[s+]2[O-])c1 (stereo not drawn) [Example 387] | < 1000
23 | COc1ccc(-c2cnn(-c3cc(O)n[s+]3[O-])c2)c(C)n1 (stereo not drawn) [Example 402] | 1000 to 5000

Same assay, conditions: rated A/B/C, Pharmacological Test Example 1

Row | SMILES | EC50 [nM]
24 | [O-][s+]1nc(O)cc1-n1ncc2cc(-c3ccc(C(F)(F)F)cn3)ccc21 (stereo not drawn) [Example 132] | < 1000
25 | CN1C(=O)C(C)(C)Oc2cc(-c3ccc4c(cnn4-c4cc(O)n[s+]4[O-])c3)cnc21 (stereo not drawn) [Example 187] | < 1000
26 | [O-][s+]1nc(O)cc1-n1ncc2cccnc21 (stereo not drawn) [Example 238] | 1000 to 5000
27 | CN1CCOc2cc(-c3ccc4c(cnn4-c4cc(O)n[s+]4[O-])c3)ncc21 (stereo not drawn) [Example 222] | < 1000
28 | COc1ccc2cnn(-c3cc(O)n[s+]3[O-])c2c1 (stereo not drawn) [Example 55] | < 1000
29 | [O-][s+]1nc(O)cc1-n1ncc2cc(-c3cccc(F)c3)ccc21 (stereo not drawn) [Example 84] | < 1000
30 | [O-][s+]1nc(O)cc1-n1ncc2ccccc21 (stereo not drawn) [Example 17] | 5000 to 10000
31 | CN1CCOc2cc(-c3ccc4c(c3)c(Cl)nn4-c3cc(O)n[s+]3[O-])cnc21 (stereo not drawn) [Example 169] | < 1000
32 | CC(C)CN1CCOc2cc(-c3ccc4c(cnn4-c4cc(O)n[s+]4[O-])c3)cnc21 (stereo not drawn) [Example 160] | < 1000
33 | COc1ccc2c(cnn2-c2cc(O)n[s+]2[O-])c1 (stereo not drawn) [Example 24] | 1000 to 5000
34 | COc1cc(Br)c2cnn(-c3cc(O)n[s+]3[O-])c2c1 (stereo not drawn) [Example 9] | 1000 to 5000
35 | CC(C)(C)OC(=O)N1CCCc2nn(-c3cc(O)n[s+]3[O-])cc2C1 (stereo not drawn) [Example 250] | 1000 to 5000
36 | COc1cccc2c1cnn2-c1cc(O)n[s+]1[O-] (stereo not drawn) [Example 191] | 1000 to 5000
37 | [O-][s+]1nc(O)cc1-n1cc(I)cn1 (stereo not drawn) [Example 287] | 1000 to 5000
38 | [O-][s+]1nc(O)cc1-n1ncc2cc(-c3cnc(N4CCCCC4)cn3)ccc21 (stereo not drawn) [Example 140] | < 1000
39 | COc1cc(-c2ccncc2)cc2c1cnn2-c1cc(O)n[s+]1[O-] (stereo not drawn) [Example 200] | 1000 to 5000
40 | [O-][s+]1nc(O)cc1-n1ncc2cc(-c3cnc4c(c3)OCCCN4)ccc21 (stereo not drawn) [Example 190] | < 1000
41 | [O-][s+]1nc(O)cc1-n1ncc2cc(OCc3ccccc3)ccc21 (stereo not drawn) [Example 26] | 1000 to 5000
42 | [O-][s+]1nc(O)cc1-n1ncc2cc(OCc3cccnc3)ccc21 (stereo not drawn) [Example 144] | 1000 to 5000
43 | CN(C)c1ccc(-c2ccc3c(cnn3-c3cc(O)n[s+]3[O-])c2)cn1 (stereo not drawn) [Example 136] | < 1000
44 | [O-][s+]1nc(O)cc1-n1cc(-c2cccc(Br)c2)cn1 (stereo not drawn) [Example 290] | < 1000
45 | CC(C)(C)OC(=O)N1CCc2c(cnn2-c2cc(O)n[s+]2[O-])C1 (stereo not drawn) [Example 247] | 1000 to 5000

Row | SMILES | EC50 [nM]
46 | CN1CCc2cc(-c3ccc4c(cnn4-c4cc(O)n[s+]4[O-])c3)cnc21 (stereo not drawn) [Example 158] | < 1000
47 | [O-][s+]1nc(O)cc1-n1ncc2nc(Cl)ccc21 (stereo not drawn) [Example 227] | 1000 to 5000
48 | CN1CCN(c2cc(-c3ccc4c(cnn4-c4cc(O)n[s+]4[O-])c3)ccn2)CC1 (stereo not drawn) [Example 52] | < 1000
49 | [O-][s+]1nc(O)cc1-n1ncc2cc(-c3cccc(N4CCCC4)n3)ccc21 (stereo not drawn) [Example 138] | < 1000
50 | COc1cc2cnn(-c3cc(O)n[s+]3[O-])c2cn1 (stereo not drawn) [Example 242] | < 1000
51 | [O-][s+]1nc(O)cc1-n1ncc2cc(-c3ccncc3)ccc21 (stereo not drawn) [Example 58] | < 1000
52 | [O-][s+]1nc(O)cc1-n1cc(CCc2ccccc2)cn1 (stereo not drawn) [Example 307] | < 1000
53 | CCN1CCOc2cc(-c3ccc4c(cnn4-c4cc(O)n[s+]4[O-])c3)cnc21 (stereo not drawn) [Example 143] | < 1000
54 | COc1cc(-c2ccc(N3CCCC3)nc2)cc2c1cnn2-c1cc(O)n[s+]1[O-] (stereo not drawn) [Example 193] | < 1000
55 | CN1CCCCOc2cc(-c3ccc4c(cnn4-c4cc(O)n[s+]4[O-])c3)cnc21 (stereo not drawn) [Example 205] | < 1000
56 | O=C(NC1CC1)c1ccc(-c2ccc3c(cnn3-c3cc(O)n[s+]3[O-])c2)cc1 (stereo not drawn) [Example 68] | 1000 to 5000
57 | [O-][s+]1nc(O)cc1-n1ncc2cc(-c3cnc4c(c3)OCCO4)ccc21 (stereo not drawn) [Example 220] | < 1000
58 | [O-][s+]1nc(O)cc1-n1ncc2cc(-c3ccc(N4CCC5(COC5)C4)nc3)ccc21 (stereo not drawn) [Example 161] | < 1000
59 | Cc1cc2cnn(-c3cc(O)n[s+]3[O-])c2cn1 (stereo not drawn) [Example 229] | 1000 to 5000
60 | CC(C)(C)OC(=O)N1CCc2nn(-c3cc(O)n[s+]3[O-])cc2C1 (stereo not drawn) [Example 248] | 1000 to 5000
61 | [O-][s+]1nc(O)cc1-n1ncc2cc(Oc3ccccc3)ccc21 (stereo not drawn) [Example 148] | 1000 to 5000
62 | Cn1cc(-c2cccc3c2cnn3-c2cc(O)n[s+]2[O-])cn1 (stereo not drawn) [Example 101] | 1000 to 5000
63 | COc1ncccc1-c1ccc2c(cnn2-c2cc(O)n[s+]2[O-])c1 (stereo not drawn) [Example 124] | < 1000
64 | CN1C(=O)COc2nc(-c3ccc4c(cnn4-c4cc(O)n[s+]4[O-])c3)ncc21 (stereo not drawn) [Example 218] | 1000 to 5000
65 | CN1CCOc2nc(-c3ccc4c(cnn4-c4cc(O)n[s+]4[O-])c3)ccc21 (stereo not drawn) [Example 179] | < 1000
66 | COc1ccncc1-c1ccc2c(cnn2-c2cc(O)n[s+]2[O-])c1 (stereo not drawn) [Example 47] | 1000 to 5000

— patent publication US10201531B2, “Indazolyl-oxo-isothiazole compounds” (MOCHIDA PHARMACEUTICAL CO., LTD., priority 2015, dated 2019)
